Source: the supplement of paper PMC13380429
± gives the standard deviation of the averaged measurements.

Columns and labels:
Conditions in all cases: 72 h
Caco-2 [1] = assay: relative viability EC50 (midpoint between 100% and the lowest measured viability); higher = less toxic
Vero E6 [2] = assay: as above
HepG2 [3] = assay: as above
U2OS [4] = assay: as above
Calu-3 [5] = assay: as above
Caco-2 [6] = assay: drug sensitivity score (DSS) for viability; higher = more toxic; extreme values may be limits of the assay
Vero E6 [7] = assay: as above
HepG2 [8] = assay: as above
U2OS [9] = assay: as above
Calu-3 [10] = assay: as above
Caco-2 [11] = assay: cell viability relative to DMSO; higher = less toxic
Vero E6 [12] = assay: as above
HepG2 [13] = assay: as above
U2OS [14] = assay: as above
Calu-3 [15] = assay: as above

Row | SMILES | relative viability EC50 (Caco-2 [1]) | relative viability EC50 (Vero E6 [2]) | relative viability EC50 (HepG2 [3]) | relative viability EC50 (U2OS [4]) | relative viability EC50 (Calu-3 [5]) | drug sensitivity score (Caco-2 [6]) | drug sensitivity score (Vero E6 [7]) | drug sensitivity score (HepG2 [8]) | drug sensitivity score (U2OS [9]) | drug sensitivity score (Calu-3 [10]) | cell viability (Caco-2 [11]; 1 nM) | cell viability (Caco-2 [11]; 10 nM) | cell viability (Caco-2 [11]; 100 nM) | cell viability (Caco-2 [11]; 1000 nM) | cell viability (Caco-2 [11]; 10000 nM) | cell viability (Vero E6 [12]; 1 nM) | cell viability (Vero E6 [12]; 10 nM) | cell viability (Vero E6 [12]; 100 nM) | cell viability (Vero E6 [12]; 1000 nM) | cell viability (Vero E6 [12]; 10000 nM) | cell viability (HepG2 [13]; 1 nM) | cell viability (HepG2 [13]; 10 nM) | cell viability (HepG2 [13]; 100 nM) | cell viability (HepG2 [13]; 1000 nM) | cell viability (HepG2 [13]; 10000 nM) | cell viability (U2OS [14]; 1 nM) | cell viability (U2OS [14]; 10 nM) | cell viability (U2OS [14]; 100 nM) | cell viability (U2OS [14]; 1000 nM) | cell viability (U2OS [14]; 10000 nM) | cell viability (Calu-3 [15]; 1 nM) | cell viability (Calu-3 [15]; 10 nM) | cell viability (Calu-3 [15]; 100 nM) | cell viability (Calu-3 [15]; 1000 nM) | cell viability (Calu-3 [15]; 10000 nM)
1 | CC(=O)NCCCOc1ccc(C(=O)N2CCC(N3C(=O)CCc4ccccc43)CC2)cc1 | > 10 µM | > 10 µM | > 10 µM | > 10 µM | > 10 µM | 0 | 0 | 0 | 0 | 0 | 104% | 90.1% | 76% | 104% | 88.6% | 105% | 92.6% | 95.6% | 104% | 106% | 113% | 92.3% | 116% | 112% | 107% | 98% | 100% | 97.3% | 101% | 95.5% | 81% | 84.4% | 77.8% | 86.9% | 79%
2 | CC(C)CC(=O)Nc1n[nH]c2c1CN(C(=O)C1CCN(C)CC1)C2(C)C | – | > 10 µM | 0.95 µM | 1.32 µM | 1.89 µM | 5.8 | 0.2 | 10.9 | 8.5 | 5.2 | 99.1% | 98.9% | 85.6% | 76.9% | 51% | 103% | 106% | 104% | 100% | 85.7% | 103% | 115% | 102% | 51.9% | 9.7% | 101% | 102% | 94% | 68.7% | 15% | 98.7% | 90.7% | 93.6% | 89.6% | 37.6%
3 | CCCCOc1ccc(-c2cncc(C(=O)NCc3cccnc3N3CCOCC3)c2)cc1Cl | – | > 10 µM | > 10 µM | > 10 µM | > 10 µM | 0.8 | 0 | 0 | 0 | 0 | 92.8% | 104% | 94.7% | 102% | 74.8% | 102% | 102% | 100% | 96.5% | 94.4% | 99.7% | 93% | 113% | 106% | 106% | 104% | 103% | 99.5% | 106% | 92.8% | 107% | 96.4% | 92.9% | 104% | 90.4%
4 | CC[C@@H](C)N(C)C(=O)c1cc2ccccc2c(-c2ccccc2Cl)n1 | > 10 µM | > 10 µM | > 10 µM | > 10 µM | > 10 µM | 0 | 0 | 0 | 0 | 0 | 106% | 104% | 95.6% | 96.4% | 98.6% | 99.4% | 105% | 100% | 102% | 107% | 92.5% | 113% | 89.6% | 100% | 107% | 102% | 98.3% | 102% | 97.3% | 103% | 108% | 106% | 93.8% | 95.8% | 99.2%
5 | CNCCn1c(=O)c2cc(OC)c(OC)cc2c2cnc3cc4c(cc3c21)OCO4 | 1.04 µM | 0.891 µM | 0.149 µM | 1.44 µM | 0.313 µM | 10 | 9.1 | 20.8 | 7.3 | 11.8 | 95.5% | 95.9% | 89.4% | 58% | 9% | 97.6% | 94.7% | 97.9% | 58.6% | 24.6% | 112% | 92.1% | 56.8% | 18.6% | -0.3% | 96.1% | 99.5% | 97.3% | 78.9% | 25.9% | 95.8% | 92.9% | 84.8% | 46.3% | 30.2%
6 | COc1ccc(C2(O)CCC(N3CC[C@@H](NC(=O)CNC(=O)c4cccc(C(F)(F)F)c4)C3)CC2)cn1 (stereo partly drawn) | > 10 µM | > 10 µM | > 10 µM | > 10 µM | > 10 µM | 0 | 0 | 0 | 0 | 0 | 100 ± 2.3% | 95.3 ± 5.2% | 95.3 ± 2.9% | 100 ± 2.4% | 94.8 ± 5.4% | 97.7 ± 1.4% | 97.8 ± 5.8% | 97.7 ± 1.3% | 95.8 ± 1.9% | 97.6 ± 3.8% | 94.8 ± 12% | 97.7 ± 1.6% | 101 ± 8.1% | 94.8 ± 8.5% | 102 ± 8.6% | 99.7 ± 2% | 98.5 ± 1.3% | 98.6 ± 2.7% | 99.4 ± 0.14% | 100 ± 4.2% | 102 ± 13% | 92.8 ± 6.5% | 96.3 ± 4.9% | 97.7 ± 4.2% | 95.2 ± 9.2%
7 | C[S+]([O-])c1ccc(-c2nc(-c3ccc(F)cc3)c(-c3ccncc3)[nH]2)cc1 (stereo not drawn) | > 10 µM | > 10 µM | > 10 µM | > 10 µM | > 10 µM | 0.8 | 0 | 0 | 0 | 0 | 111% | 97% | 103% | 95.1% | 84% | 99% | 112% | 97.2% | 110% | 92.3% | 104% | 105% | 96.1% | 107% | 91.8% | 104% | 102% | 102% | 95.5% | 96.9% | 106% | 101% | 98.2% | 98.4% | 101%
8 | Cc1[nH]c2ccc(Cl)cc2c1C1=CCNCC1 | > 10 µM | > 10 µM | > 10 µM | > 10 µM | > 10 µM | 0.8 | 0 | 0 | 0 | 0 | 95.9% | 102% | 99.4% | 97% | 81.7% | 98.1% | 96.4% | 99.6% | 96% | 91.7% | 93.2% | 94.7% | 97.1% | 95.3% | 89.9% | 96.5% | 103% | 95.4% | 96.5% | 88.9% | 109% | 106% | 99.8% | 103% | 91.5%
9 | Cc1c(C(=O)NC2CCCCC2)sc2nc3ccc(N)cc3n12 | > 10 µM | > 10 µM | > 10 µM | > 10 µM | > 10 µM | 0 | 0 | 0 | 0 | 0 | 105% | 97% | 101% | 103% | 104% | 99.4% | 103% | 96.9% | 103% | 107% | 94.1% | 101% | 92.8% | 104% | 107% | 102% | 94.6% | 96.4% | 98.1% | 102% | 93.7% | 109% | 83.3% | 97.4% | 103%
10 | Cc1cc(C)c2c(N)c(C(=O)NCc3ccc(Cl)cc3)sc2n1 | > 10 µM | > 10 µM | > 10 µM | > 10 µM | > 10 µM | 0 | 0 | 0 | 0 | 0 | 95.7% | 91.5% | 107% | 89.5% | 108% | 101% | 91.8% | 108% | 90.4% | 105% | 102% | 105% | 101% | 91.6% | 98.5% | 98.9% | 103% | 99.7% | 102% | 105% | 101% | 92.2% | 97% | 108% | 96.3%
11 | Cc1ccc(C(=O)N(CCCN)[C@@H](c2oc3cc(Cl)ccc3c(=O)c2Cc2ccccc2)C(C)C)cc1 | 0.469 µM | 0.169 µM | 0.0342 µM | 0.165 µM | 2.33 µM | 14.3 | 19.7 | 27.1 | 18.1 | 7.2 | 98.9% | 78.2% | 62% | 66.1% | 5.6% | 99.4% | 87.5% | 44.7% | 42% | -0.2% | 102% | 45.1% | 36.9% | 34.4% | 0.1% | 100% | 74.6% | 52.7% | 52% | 8.2% | 98.2% | 91.5% | 89.1% | 90% | 0.4%
12 | Cc1cnc(Nc2ccc(N3CCN(C)CC3)cc2)nc1Nc1cccc(S(=O)(=O)NC(C)(C)C)c1 | 1.2 µM | 2.41 µM | 0.8 µM | 1.55 µM | 1.92 µM | 9.7 | 7 | 9 | 9.3 | 7.1 | 96.3% | 101% | 98.4% | 64.3% | 9.6% | 93% | 105% | 94.9% | 90.9% | 0.2% | 96.2% | 105% | 97.2% | 57.9% | 28.9% | 92.1% | 93.7% | 100% | 75.3% | 0.5% | 93% | 95.1% | 92.6% | 86.1% | 13.8%
13 | CC(C)Cc1ccc([C@@H](C)C(=O)NCCO)cc1 (racemic) [mabuprofen] | > 10 µM | > 10 µM | > 10 µM | > 10 µM | > 10 µM | 0 | 0 | 0 | 0 | 0 | 102% | 96.4% | 104% | 94% | 96.1% | 102% | 100% | 101% | 97.9% | 94.7% | 92.7% | 105% | 90.8% | 95.3% | 96.4% | 105% | 98.9% | 103% | 100% | 100% | 106% | 103% | 105% | 99.4% | 117%
14 | Ic1cc(-c2ccccc2)ncn1 [4-iodo-6-phenylpyrimidine] | > 10 µM | > 10 µM | > 10 µM | > 10 µM | > 10 µM | 0 | 0 | 0 | 0 | 0 | 93.8% | 101% | 104% | 97.5% | 98% | 105% | 102% | 97.7% | 105% | 95.5% | 100% | 107% | 96.8% | 105% | 98.8% | 102% | 97.2% | 102% | 99.1% | 102% | 100% | 105% | 105% | 87.2% | 104%
15 | O=S(=O)(O)c1ccc(O)cc1 [4-phenolsulfonic-acid] | > 10 µM | > 10 µM | > 10 µM | > 10 µM | > 10 µM | 0 | 0 | 0 | 0 | 0 | 102% | 101% | 98.4% | 103% | 98.4% | 100% | 95.7% | 92.6% | 100% | 94.5% | 104% | 92.3% | 116% | 105% | 97.8% | 100% | 104% | 97% | 97.6% | 101% | 102% | 103% | 104% | 95.1% | 97.1%
